Reference: ChEMBL document CHEMBL1255229, “Novel antimicrobial peptides that exhibit activity against select agents and other drug resistant bacteria” (2010)
Values after ≈ are worked out from the molar mass of the structure shown. Starred links: 1 amine or outer side, 2 acyl side, 3 side chain; linkers in the order of their positions; H or OH if unused. Non-standard residues stand in square brackets, D forms with d. Residues, ends and D or L forms follow the SMILES beside them. X1 = O=C([C@@H]1CN([*:1])C2CCCCC21)[*:2]; Tic = O=C(O)[C@@H]1Cc2ccccc2CN1; Orn = NCCC[C@H](N)C(=O)O; Ahx = NCCCCCC(=O)O; GABA = NCCCC(=O)O

Tests used:
Assay type in all cases: functional
Brucella melitensis = experiment: Antimicrobial activity against Brucella melitensis 16 M after 24 hrs
Acinetobacter baumannii [1] = experiment: Antimicrobial activity against Acinetobacter baumannii WRAIR after 24 hrs
Burkholderia mallei = experiment: Antimicrobial activity against Burkholderia mallei ATCC 23444 after 24 hrs; settings: ATCC 23444, 24 h
Francisella tularensis = experiment: Antimicrobial activity against Francisella tularensis SCHU-S4 after 24 hrs; settings: SCHU-S4, 24 h
Acinetobacter baumannii [2] = experiment: Antimicrobial activity against Acinetobacter baumannii ATCC 19606 after 24 hrs; settings: ATCC 19606 = CIP 70.34 = JCM 6841, 24 h
Brucella abortus = experiment: Antimicrobial activity against Brucella abortus 2308 after 24 hrs; settings: Brucella abortus, 2308, 24 h
Staphylococcus aureus = experiment: Antimicrobial activity against methicillin-resistant Staphylococcus aureus ATCC 33591 after 24 hrs; settings: ATCC 33591, 24 h
Yersinia pestis = experiment: Antimicrobial activity against Yersinia pestis CO92 after 24 hrs; settings: CO92, 24 h
[3] = system: Burkholderia pseudomallei; experiment: Antimicrobial activity against Burkholderia pseudomallei BURK003(1026b) after 24 hrs
Bacillus anthracis = experiment: Antimicrobial activity against Bacillus anthracis Ames after 24 hrs
Brucella suis = experiment: Antimicrobial activity against Brucella suis ATCC 23445 after 24 hrs; settings: ATCC 23445, 24 h

SMILES | MIC (Brucella melitensis) | MIC (Acinetobacter baumannii [1]) | MIC (Burkholderia mallei) | MIC (Francisella tularensis) | MIC (Acinetobacter baumannii [2]) | MIC (Brucella abortus) | MIC (Staphylococcus aureus) | MIC (Yersinia pestis) | MIC [3] | MIC (Bacillus anthracis) | MIC (Brucella suis)
CC(=O)NCCCC(=O)N[C@@H](Cc1ccccc1)C(=O)N1Cc2ccccc2C[C@H]1C(=O)N1C[C@@H](C(=O)NCCCC(=O)N[C@@H](CCCCN)C(=O)N2Cc3ccccc3C[C@H]2C(=O)N2C[C@@H](C(=O)NCCCC(=O)N[C@@H](Cc3ccccc3)C(=O)N3Cc4ccccc4C[C@H]3C(=O)N3C[C@@H](C(=O)NCCCC(=O)N[C@@H](CCCCN)C(=O)N4Cc5ccccc5C[C@H]4C(=O)N[C@@H](CCCCN)C(=O)N[C@@H](CCCCN)C(=O)N[C@@H](CCCCN)C(=O)N[C@@H](CCCCN)C(=O)N[C@@H](CCCCN)C(N)=O)C4CCCCC43)C3CCCCC32)C2CCCCC21 (stereo not given in full) (Ac-[GABA]F[Tic][X1][GABA]K[Tic][X1][GABA]F[Tic][X1][GABA]K[Tic]KKKKK-NH2) | 46.6 µM (≈ 125 µg/mL) | 2.9 µM (≈ 7.78 µg/mL) | 186 µM (≈ 499 µg/mL) | 186 µM (≈ 499 µg/mL) | 5.8 µM (≈ 15.6 µg/mL) | > 186 µM | 46.6 µM (≈ 125 µg/mL) | 46.6 µM (≈ 125 µg/mL) | 186 µM (≈ 499 µg/mL) | 0.71 µM (≈ 1.9 µg/mL) | 93 µM (≈ 249 µg/mL)
CC(C)C[C@H](NC(=O)[C@@H](N)CCCCN)C(=O)N1Cc2ccccc2C[C@H]1C(=O)N1C[C@@H](C(=O)N[C@@H](CCCCN)C(=O)N2Cc3ccccc3C[C@H]2C(=O)N2C[C@@H](C(=O)N[C@@H](Cc3ccccc3)C(=O)N3Cc4ccccc4C[C@H]3C(=O)N3C[C@@H](C(=O)N[C@@H](CCCCN)C(=O)N4Cc5ccccc5C[C@H]4C(=O)N4C[C@@H](C(=O)N[C@@H](Cc5ccccc5)C(=O)N5Cc6ccccc6C[C@H]5C(=O)N5C[C@@H](C(=O)N[C@@H](CCCCN)C(=O)N6Cc7ccccc7C[C@H]6C(=O)N6C[C@@H](C(=O)N[C@@H](CCCCN)C(=O)N[C@@H](CCCNC(=N)N)C(N)=O)C7CCCCC76)C6CCCCC65)C5CCCCC54)C4CCCCC43)C3CCCCC32)C2CCCCC21 (stereo not given in full) (H-KL[Tic][X1]K[Tic][X1]F[Tic][X1]K[Tic][X1]F[Tic][X1]K[Tic][X1]KR-NH2) | 162 µM (≈ 500 µg/mL) | 162 µM (≈ 500 µg/mL) | 162 µM (≈ 500 µg/mL) | 81 µM (≈ 250 µg/mL) | 40.5 µM (≈ 125 µg/mL) | 500 µM (≈ 1540 µg/mL) | 162 µM (≈ 500 µg/mL) | 162 µM (≈ 500 µg/mL) | 162 µM (≈ 500 µg/mL) | 40.5 µM (≈ 125 µg/mL) | 162 µM (≈ 500 µg/mL)
CC(=O)NCC(=O)N[C@@H](Cc1ccccc1)C(=O)N1Cc2ccccc2C[C@H]1C(=O)N1C[C@@H](C(=O)NCC(=O)N[C@@H](CCCCN)C(=O)N2Cc3ccccc3C[C@H]2C(=O)N2C[C@@H](C(=O)NCC(=O)N[C@@H](Cc3ccccc3)C(=O)N3Cc4ccccc4C[C@H]3C(=O)N3C[C@@H](C(=O)NCC(=O)N[C@@H](CCCCN)C(=O)N4Cc5ccccc5C[C@H]4C(=O)NCCCCCC(=O)N[C@@H](CCCCN)C(=O)N[C@@H](CCCCN)C(=O)N[C@@H](CCCCN)C(=O)N[C@@H](CCCCN)C(N)=O)C4CCCCC43)C3CCCCC32)C2CCCCC21 (stereo not given in full) (Ac-GF[Tic][X1]GK[Tic][X1]GF[Tic][X1]GK[Tic][Ahx]KKKK-NH2) | 196 µM (≈ 501 µg/mL) | 6.1 µM (≈ 15.6 µg/mL) | 196 µM (≈ 501 µg/mL) | 196 µM (≈ 501 µg/mL) | 3 µM (≈ 7.66 µg/mL) | 196 µM (≈ 501 µg/mL) | 196 µM (≈ 501 µg/mL) | 48.9 µM (≈ 125 µg/mL) | 196 µM (≈ 501 µg/mL) | 48.9 µM (≈ 125 µg/mL) | 196 µM (≈ 501 µg/mL)
CC(=O)NCC(=O)N[C@@H](Cc1ccccc1)C(=O)N1Cc2ccccc2C[C@H]1C(=O)N1C[C@@H](C(=O)NCC(=O)N[C@@H](CCCCN)C(=O)N2Cc3ccccc3C[C@H]2C(=O)N2C[C@@H](C(=O)NCC(=O)N[C@@H](Cc3ccccc3)C(=O)N3Cc4ccccc4C[C@H]3C(=O)N3C[C@@H](C(=O)NCC(=O)N[C@@H](CCCCN)C(=O)N4Cc5ccccc5C[C@H]4C(=O)N[C@@H](CCCCN)C(=O)N[C@@H](CCCCN)C(=O)N[C@@H](CCCCN)C(N)=O)C4CCCCC43)C3CCCCC32)C2CCCCC21 (stereo not given in full) (Ac-GF[Tic][X1]GK[Tic][X1]GF[Tic][X1]GK[Tic]KKK-NH2) | 54 µM (≈ 125 µg/mL) | 3.4 µM (≈ 7.86 µg/mL) | 0.02 µM (≈ 0.0463 µg/mL) | 0.02 µM (≈ 0.0463 µg/mL) | 6.7 µM (≈ 15.5 µg/mL) | 27 µM (≈ 62.4 µg/mL) | 54 µM (≈ 125 µg/mL) | 27 µM (≈ 62.4 µg/mL) | 0.02 µM (≈ 0.0463 µg/mL) | 27 µM (≈ 62.4 µg/mL) | > 216 µM
CC(=O)NCC(=O)N[C@@H](Cc1ccccc1)C(=O)N1Cc2ccccc2C[C@H]1C(=O)N1C[C@@H](C(=O)NCC(=O)N[C@@H](CCCCN)C(=O)N2Cc3ccccc3C[C@H]2C(=O)N2C[C@@H](C(=O)NCC(=O)N[C@@H](Cc3ccccc3)C(=O)N3Cc4ccccc4C[C@H]3C(=O)N3C[C@@H](C(=O)NCC(=O)N[C@@H](CCCCN)C(=O)N4Cc5ccccc5C[C@H]4C(=O)N[C@@H](CCCN)C(=O)N[C@@H](CCCN)C(=O)N[C@@H](CCCN)C(=O)N[C@@H](CCCN)C(N)=O)C4CCCCC43)C3CCCCC32)C2CCCCC21 (stereo not given in full) (Ac-GF[Tic][X1]GK[Tic][X1]GF[Tic][X1]GK[Tic][Orn][Orn][Orn][Orn]-NH2) | 104 µM (≈ 248 µg/mL) | 6.5 µM (≈ 15.5 µg/mL) | 209 µM (≈ 498 µg/mL) | 105 µM (≈ 250 µg/mL) | 6.5 µM (≈ 15.5 µg/mL) | 209 µM (≈ 498 µg/mL) | 52.4 µM (≈ 125 µg/mL) | 26.2 µM (≈ 62.5 µg/mL) | 209 µM (≈ 498 µg/mL) | 0.81 µM (≈ 1.93 µg/mL) | 13 µM (≈ 31 µg/mL)
